# Measured values reported in PMC8533299, “Synthesis, In Silico Study, and Anti-Cancer Activity of Thiosemicarbazone Derivatives” (Biomedicines, 2021).
# Several values for one entry are separate records, joined by “and”; a condition that tells them apart may be missing. Identical values can stand only once.
# Experiments:
# [1] = test system: MCF-7 (Human breast cancer); test: MTT test on MCF-7 cells; assay type: cell-based; details: MCF7, till 48 h
# Procedure: (§1) The in vitro anticancer activities of the synthesized compounds were conducted using different cancerous and non-cancerous cell lines viz B16-F0 (Mouse melanoma), mouse Ehrlich Ascites Carcinoma (EAC), MCF-7 (Human breast cancer), MCF-10A (Human breast epithelial cells), and NIH/3T3 (Mouse fibroblast cells). All cell lines were procured from the National Centre for Cell Science, Pune, India. The procured cells were cultured in a six-well culture plate with Dulbecco’s Modified Eagle’s Medium (DMEM) supplemented with 10% fetal bovine serum in a humid CO2 incubator with 5% carbon dioxide at 37 °C.
# (§2) The anti-cancer effect and cytotoxicity of both 3-MBTSc and 4-NBTSc compounds were evaluated against different cancerous (MCF-7, EAC, B16-F0 cells) and noncancerous cells (MCF-10A, NIH-3T3 cells) using MTT test. In brief, the stock solutions of both the tested compounds were prepared by dissolving 1 mg of each compound in 1 mL of DMSO separately. Then, four different concentrations (5, 10, 12, and 20 µg/mL) of both compounds were used during the test along with the negative control. Also, 10 μg/mL of doxorubicin (Dox) was used as the positive control during the experiment. Both untreated and treated cells were incubated for next 24 and 48 h. Then, all the steps during the whole experiment were carried out by our earlier reported procedure. Later, the absorbance values were measured by an ELISA reader (Biorad, Hercules, CA, USA) at 570 nm wavelength using secondary wavelength as a reference at 620 nm and the percentages of cell viability was calculated using the following formula [59, 60, 61]. Cell viability (%)= Mean absorbance of treated cells/Mean absorbance of untreated cells × 100
# (§3) Based on the cell viability data, the IC50 values of both compounds were calculated on different cancer cells by plotting their corresponding dose-responsive graphs.
# The obtained data were statistically analyzed. The descriptive analysis was done and the IC50 values were calculated by fitting the sigmoidal dose responsive graph using GraphPad Prism (GraphPad Software, Inc., La Jolla, CA, USA). […]
# [2] = MTT cytotoxicity test on MCF-10A cells; assay type: cell-based, Human; details: human, MCF-10A breast epithelial cells
# Procedure: as §1, §2
# [3] = test system: MCF-10A (Human breast epithelial cells); test: MTT cytotoxicity test on MCF-10A cells; assay type: cell-based; details: 48 h
# Procedure: as §1, §2
# [4] = MTT cytotoxicity test on NIH-3T3 cells; assay type: cell-based, Mouse; details: mouse, NIH/3T3 fibroblast cells
# Procedure: as §1, §2
# [5] = test system: NIH/3T3 (Mouse fibroblast cells); test: MTT cytotoxicity test on NIH-3T3 cells; assay type: cell-based; details: 48 h
# Procedure: as §1, §2
# [6] = test system: MCF-7, EAC, B16-F0 cells; test: MTT test, cancer cell lines overall; assay type: cell-based; details: over the cell lines tested; read-out: IC50 (range over treated cells)
# Procedure: as §1
# The anti-cancer effect and cytotoxicity of both 3-MBTSc and 4-NBTSc compounds were evaluated against different cancerous (MCF-7, EAC, B16-F0 cells) and noncancerous cells (MCF-10A, NIH-3T3 cells) using MTT test. […] Later, the absorbance values were measured by an ELISA reader (Biorad, Hercules, CA, USA) at 570 nm wavelength using secondary wavelength as a reference at 620 nm and the percentages of cell viability was calculated using the following formula [59, 60, 61]. Cell viability (%)= Mean absorbance of treated cells/Mean absorbance of untreated cells × 100
# as §3
# The obtained data were statistically analyzed. […]
# [7] = test system: gene expression in EAC cells; test: RT-qPCR gene expression in EAC cells; assay type: cell-based, mouse
# Procedure: (§4) Total mRNA was isolated and extracted by Trizol reagent as described in an earlier method. RevertAid First Strand cDNA synthesis kit (Thermo Fisher Scientific, Waltham, MA, USA) was used to synthesize cDNA in a total reaction volume of 20 μL containing oligo-dT primers, RiboLock RNase inhibitor, and reverse transcriptase. Gene-specific primers were used to amplify cDNAs in RT-qPCR machine (Applied Biosystems, Waltham, MA, USA).
# [8] = test system: gene expression in B16-F0 melanoma cells; test: RT-qPCR gene expression in B16-F0 cells; assay type: cell-based, Mouse
# Procedure: as §4
# [9] = test system: gene expression in MCF-7 human breast cancer cells; test: RT-qPCR gene expression in MCF-7 cells; assay type: cell-based
# Procedure: as §4
# [10] = EAC cells treated, GAPDH housekeeping gene
# [11] = EAC cells, difference of RQ values
# [12] = B16-F0 cells treated, GAPDH housekeeping gene
# [13] = B16-F0 cells, difference of RQ values
# [14] = MCF-7 cells treated, GAPDH housekeeping gene
# [15] = MCF-7 cells, difference of RQ values
smiles,measurement,setting,value
"NC(=S)N[N-][CH+]c1ccc([N+](=O)[O-])cc1 [4-NBTSc, 4-Nitrobenzaldehyde thiosemicarbazone]",IC50,[1],7.102 ± 0.01 µg/mL
same,viability at 48 h,[2],> 80%
same,toxicity,[3],less than 20%
same,viability at 48 h,[4],> 80%
same,toxicity,[5],less than 20%
same,IC50,[6],2.8 to 7.59 µg/mL
same,BCl2 Treated (RQ value),[7]; [10],6.195 ± 0.021
same,BRCA1 Treated (RQ value),[7]; [10],7.195 ± 0.021
same,Bax Treated (RQ value),[7]; [10],2.945 ± 0.035
same,Caspase-3 Treated (RQ value),[7]; [10],4.23 ± 0.028
same,Dmp1 Treated (RQ value),[7]; [10],4.1 ± 0.014
same,Fos Treated (RQ value),[7]; [10],3.095 ± 0.021
same,MTS 1 Treated (RQ value),[7]; [10],1.945 ± 0.035
same,Mdm2 Treated (RQ value),[7]; [10],4.955 ± 0.021
same,PKC Treated (RQ value),[7]; [10],7.13 ± 0.028
same,PTEN Treated (RQ value),[7]; [10],8.65 ± 0.028
same,RAS Treated (RQ value),[7]; [10],3.13 ± 0.028
same,p19 Arf Treated (RQ value),[7]; [10],4.605 ± 0.021
same,p21 Treated (RQ value),[7]; [10],3.125 ± 0.035
same,p53 Treated (RQ value),[7]; [10],3.165 ± 0.064
same,pRB Treated (RQ value),[7]; [10],6.095 ± 0.035
same,BCl2 Fold Change (EAC treated-EAC untreated),[7]; [11],3.105 fold
same,BRCA1 Fold Change (EAC treated-EAC untreated),[7]; [11],5.135 fold and 5.13 fold
same,Bax Fold Change (EAC treated-EAC untreated),[7]; [11],-0.105 fold
same,Caspase-3 Fold Change (EAC treated-EAC untreated),[7]; [11],1.33 fold
same,Dmp1 Fold Change (EAC treated-EAC untreated),[7]; [11],1.95 fold
same,MTS 1 Fold Change (EAC treated-EAC untreated),[7]; [11],0.04 fold
same,Mdm2 Fold Change (EAC treated-EAC untreated),[7]; [11],-0.25 fold
same,PTEN Fold Change (EAC treated-EAC untreated),[7]; [11],7.42 fold
same,p19 Arf Fold Change (EAC treated-EAC untreated),[7]; [11],1.855 fold
same,p21 Fold Change (EAC treated-EAC untreated),[7]; [11],2.13 fold
same,p53 Fold Change (EAC treated-EAC untreated),[7]; [11],2.105 fold
same,pRB Fold Change (EAC treated-EAC untreated),[7]; [11],4.19 fold
same,BCl2 Treated (RQ value),[8]; [12],2.36 ± 0.028
same,BRCA1 Treated (RQ value),[8]; [12],1.94 ± 0.028
same,Bax Treated (RQ value),[8]; [12],6.09 ± 0.028
same,Caspase-3 Treated (RQ value),[8]; [12],5.215 ± 0.021
same,Dmp1 Treated (RQ value),[8]; [12],7.19 ± 0.028
same,Fos Treated (RQ value),[8]; [12],2.905 ± 0.021
same,MTS 1 Treated (RQ value),[8]; [12],4.865 ± 0.021
same,Mdm2 Treated (RQ value),[8]; [12],6.1 ± 0.014
same,PKC Treated (RQ value),[8]; [12],7.14 ± 0.028
same,PTEN Treated (RQ value),[8]; [12],6.97 ± 0.014
same,RAS Treated (RQ value),[8]; [12],4.145 ± 0.035
same,p19 Arf Treated (RQ value),[8]; [12],3.145 ± 0.035
same,p21 Treated (RQ value),[8]; [12],4.12 ± 0.014
same,p53 Treated (RQ value),[8]; [12],3.185 ± 0.021
same,pRB Treated (RQ value),[8]; [12],1.06 ± 0.085
same,BCl2 Fold Change (B16-F0 treated-B16-F0 untreated),[8]; [13],0.27 fold
same,BRCA1 Fold Change (B16-F0 treated-B16-F0 untreated),[8]; [13],0.14 fold
same,Bax Fold Change (B16-F0 treated-B16-F0 untreated),[8]; [13],3.355 fold and 3.35 fold
same,Caspase-3 Fold Change (B16-F0 treated-B16-F0 untreated),[8]; [13],2.615 fold
same,Dmp1 Fold Change (B16-F0 treated-B16-F0 untreated),[8]; [13],4.7 fold
same,MTS 1 Fold Change (B16-F0 treated-B16-F0 untreated),[8]; [13],2.93 fold
same,Mdm2 Fold Change (B16-F0 treated-B16-F0 untreated),[8]; [13],-1.14 fold
same,PTEN Fold Change (B16-F0 treated-B16-F0 untreated),[8]; [13],4.825 fold and 4.82 fold
same,p19 Arf Fold Change (B16-F0 treated-B16-F0 untreated),[8]; [13],1.81 fold
same,p21 Fold Change (B16-F0 treated-B16-F0 untreated),[8]; [13],1.93 fold
same,p53 Fold Change (B16-F0 treated-B16-F0 untreated),[8]; [13],1.025 fold
same,pRB Fold Change (B16-F0 treated-B16-F0 untreated),[8]; [13],-0.54 fold
same,BCl2 Treated (RQ value),[9]; [14],3.11 ± 0.01
same,BRCA1 Treated (RQ value),[9]; [14],2.86 ± 0.455
same,BRCA2 Treated (RQ value),[9]; [14],4.13 ± 0.02
same,Bax Treated (RQ value),[9]; [14],1.825 ± 0.025
same,Caspase-3 Treated (RQ value),[9]; [14],1.85 ± 0.04
same,Dmp1 Treated (RQ value),[9]; [14],2.19 ± 0.02
same,ER Treated (RQ value),[9]; [14],2.14 ± 0.03
same,Hdm2 Treated (RQ value),[9]; [14],3.92 ± 0.045
same,Myc Treated (RQ value),[9]; [14],2.35 ± 0.025
same,PKC Treated (RQ value),[9]; [14],6.09 ± 0.02
same,PR Treated (RQ value),[9]; [14],1.15 ± 0.02
same,PTEN Treated (RQ value),[9]; [14],5.09 ± 0.02
same,RAS Treated (RQ value),[9]; [14],3.94 ± 0.02
same,p19 Arf Treated (RQ value),[9]; [14],0.995 ± 0.025
same,p21 Treated (RQ value),[9]; [14],4.12 ± 1.51
same,p53 Treated (RQ value),[9]; [14],4.185 ± 0.025
same,pRB Treated (RQ value),[9]; [14],3.81 ± 0.02
same,BCl2 Fold Change (MCF 7 treated-MCF 7 untreated),[9]; [15],1.02 fold
same,BRCA1 Fold Change (MCF 7 treated-MCF 7 untreated),[9]; [15],1.06 fold
same,BRCA2 Fold Change (MCF 7 treated-MCF 7 untreated),[9]; [15],2.19 fold
same,Bax Fold Change (MCF 7 treated-MCF 7 untreated),[9]; [15],1.1 fold
same,Caspase-3 Fold Change (MCF 7 treated-MCF 7 untreated),[9]; [15],1.25 fold
same,Dmp1 Fold Change (MCF 7 treated-MCF 7 untreated),[9]; [15],-0.3 fold
same,ER Fold Change (MCF 7 treated-MCF 7 untreated),[9]; [15],-2.7 fold
same,Hdm2 Fold Change (MCF 7 treated-MCF 7 untreated),[9]; [15],-3.32 fold
same,Myc Fold Change (MCF 7 treated-MCF 7 untreated),[9]; [15],-5.1 fold
same,PR Fold Change (MCF 7 treated-MCF 7 untreated),[9]; [15],-0.05 fold
same,PTEN Fold Change (MCF 7 treated-MCF 7 untreated),[9]; [15],2.945 fold and 2.95 fold
same,p19 Arf Fold Change (MCF 7 treated-MCF 7 untreated),[9]; [15],-0.34 fold
same,p21 Fold Change (MCF 7 treated-MCF 7 untreated),[9]; [15],1.93 fold
same,p53 Fold Change (MCF 7 treated-MCF 7 untreated),[9]; [15],2.025 fold
same,pRB Fold Change (MCF 7 treated-MCF 7 untreated),[9]; [15],2.21 fold
